In BindingDB's records for doi:10.1021/acs.jmedchem.0c00337 (Peking Union Medical College, 2020):
pEC50, pIC50: −log10 of the molar value.

assay: Reversal of Pgp-mediated DOX resistance in human SW620/AD300 cells assessed as concentration required to show half of DOX IC50 incubated for 48 hrs by SRB assay

pEC50 | SMILES
6.99 | COc1cc2c(cc1OC)CN(CCc1ccc(NC(=O)/C=C/c3ccc(Oc4ccc(-c5cccnc5)cc4)nc3)cc1)CC2
7.43 | COc1cc2c(cc1OC)CN(CCc1ccc(NC(=O)/C=C/c3ccc(Oc4ccc(-c5ccccn5)c(Cl)c4)nc3)cc1)CC2
7.29 | COc1cc2c(cc1OC)CN(CCc1ccc(NC(=O)/C=C/c3ccc(Oc4ccc(-c5ccccn5)c(C#N)c4)nc3)cc1)CC2

assay: Reversal of Pgp-mediated DOX resistance in human SW620/AD300 cells assessed as potentiation of DOX-induced cytotoxicity by measuring DOX IC50 at 1 uM incubated for 48 hrs by SRB assay (Rvb = 33.39 +/- 7.08 uM)

SMILES | pIC50
COc1cc2c(cc1OC)CN(CCc1ccc(NC(=O)/C=C/c3c(-c4ccccc4)n(C)c4ncccc34)cc1)CC2 | 6.09
COc1cc2c(cc1OC)CN(CCc1ccc(NC(=O)C(O)c3c(-c4ccccc4)n(C)c4ccccc34)cc1)CC2 (configuration not stated) | 5.96
COc1cc2c(cc1OC)CN(CCc1ccc(NC(=O)C(c3c(-c4ccccc4)n(C)c4ccccc34)N3CCOCC3)cc1)CC2 (configuration not stated) | 6.26
COc1cc2c(cc1OC)CN(CCc1ccc(NC(=O)/C=C/c3c(-c4ccccc4)oc4ccccc4c3=O)cc1)CC2 | 5.87
COc1ccc2c(C)c(CC(=O)Nc3ccc(CCN4CCc5cc(OC)c(OC)cc5C4)cc3)c(=O)oc2c1 | 5.71
COc1cc2c(cc1OC)CN(CCc1ccc(NC(=O)/C=C/c3cc(-c4ccccn4)cc(C)c3Oc3ccccn3)cc1)CC2 | 6.26
COc1cc2c(cc1OC)CN(CCc1ccc(NC(=O)/C=C/c3cccc(Oc4ccc(-c5ccccn5)cc4)n3)cc1)CC2 | 6.00
COc1cc2c(cc1OC)CN(CCc1ccc(NC(=O)/C=C/c3ccc(Oc4ccc(-c5cccnc5)cc4)nc3)cc1)CC2 | 6.41
COc1cc2c(cc1OC)CN(CCc1ccc(NC(=O)/C=C/c3ccc(Oc4cccc(-c5ccccn5)c4)nc3)cc1)CC2 | 6.12
COc1cc2c(cc1OC)CN(CCc1ccc(NC(=O)C3CC3c3ccc(Oc4ccc(-c5ccccn5)cc4)nc3)cc1)CC2 (configuration not stated) | 6.12
COc1cc2c(cc1OC)CN(CCc1ccc(NC(=O)/C=C/c3ccc(Oc4ccc(-c5ccccn5)cc4C)nc3)cc1)CC2 | 6.13
COc1cc2c(cc1OC)CN(CCc1ccc(NC(=O)/C=C/c3ccc(Oc4ccc(-c5ccccn5)c(Cl)c4)nc3)cc1)CC2 | 6.25
COc1cc2c(cc1OC)CN(CCc1ccc(NC(=O)/C=C/c3ccc(Oc4ccc(-c5ccccn5)c(O)c4)nc3)cc1)CC2 | 6.09
COc1cc2c(cc1OC)CN(CCc1ccc(NC(=O)/C=C/c3ccc(Oc4cc(O)c(-c5ccccn5)c(O)c4)nc3)cc1)CC2 | 6.11
COc1cc2c(cc1OC)CN(CCc1ccc(NC(=O)/C=C/c3ccc(Oc4c(I)cc(-c5ccccn5)cc4I)nc3)cc1)CC2 | 5.93
COc1cc2c(cc1OC)CN(CCc1ccc(NC(=O)/C=C/c3ccc(Oc4ccc(-c5ccccn5)cc4I)nc3)cc1)CC2 | 6.12
COc1cc2c(cc1OC)CN(CCc1ccc(NC(=O)/C=C/c3ccc(Oc4ccc(-c5ccccn5)cc4Br)nc3)cc1)CC2 | 6.15
COc1cc2c(cc1OC)CN(CCc1ccc(NC(=O)/C=C/c3ccc(Oc4ccc(-c5ccccn5)c(C#N)c4)nc3)cc1)CC2 | 6.21
COc1cc2c(cc1OC)CN(CCc1ccc(NC(=O)/C=C/c3ccc(Oc4ccc(-c5ccccn5)c(C)c4)nc3)cc1)CC2 | 6.31
